Tested on: mice with constipation
Experiment: Loperamide constipation model: fecal water content and first black stool defecation time
Assay type: in vivo, BALB/c mice
Conditions: loperamide 10 mg/kgBW constipation, vs model group
Text: 40 SPF male BALB/c mice (20-25 g) were randomly divided into 5 groups: a blank control group, a constipation model control group, a Lactobacillus fermentum CCFM1051 intervention group, a Lactobacillus plantarum control group and a phenolphthalein treatment group with 10 mice in each group. The freeze-dried Lactobacillus fermentum CCFM1051 powder was resuspended in skim milk powder to prepare a bacterial suspension with a concentration of 4.0×10^9 CFU/mL. […] The fecal water content was calculated by using the following formula: Fecal water content (%)=(wet weight of feces−dry weight of feces)/wet weight of feces×100. On the morning of the 17th day, the mice in the blank control group were gavaged with normal saline, the mice in the other groups were gavaged with loperamide, after the gavage for 1 h, all the mice were gavaged with 0.25 mL of an activated carbon arabic gum aqueous solution, each mouse was separately placed in a clean stainless steel cage covered with absorbent paper, time (min) from start of the gavage with the activated carbon to defecation of first black stool was recorded as first black stool defecation time to evaluate an effect of the Lactobacillus fermentum CCFM1051 on constipation of the mice, and during the period, the mice ate and drank freely.

SMILES: O=C1OC(c2ccc(O)cc2)(c2ccc(O)cc2)c2ccccc21 [phenolphthalein]
- first black stool defecation time (activated carbon gavage): significantly shortened
- fecal water content: extremely significantly increased
